In US9938249B2, “Anti-amyloid compounds containing benzofurazan” (Treventis Corporation, priority 2014, dated 2018):
pIC50: −log10 of the molar value.

These compounds were tested against Terminally biotinylated beta-amyloid (Aβ42) (Homo sapiens, UniProt P05067) (assay: Aβ42 biotinylated (biotin-AB) oligomerization assay, NeutrAvidin capture ELISA). Details: approximate value; 1 hr oligomerization at room temperature; read-out: IC50 Aβ 42-bio.
Assay type: biochemical
Protocol: Aβ42 Biotinylated Assay Terminally biotinylated beta-amyloid (biotin-AB) was dissolved in HFIP at the concentration of 1 mg/ml and aliquoted to 50 μl/tube in 0.65 ml colored microfuge tubes (Fisher 02-681-248). The aliquots were diluted immediately by adding 450 μl of HFIP to 0.1 mg/ml. Approximately 46 ul (containing approximately 4.6 ug of biotin-AB) were taken from a tube, 100 ul of HFIP added, vortexed, and dried to a thin film under an N2 stream. 100 μl of trifluoroacetic acid (TFA) was added and vortexed. After 10 minute incubation at room temperature in a hood, resulting in disaggregation of seeds, the sample was vortexed again and dried again to a thin film under an N2 stream. 100 μl of HFIP was added, mixed, and the biotin-AB sample was dried for a third time under an N2 stream to remove residual TFA. The treated biotin-AB was dissolved in DMSO to a final peptide concentration of […] (SOX). An ELISA “capture” plate (Costar 9018) was coated with 50 μl of 1 μg/ml NeutrAvidin™ (NA) in 10 mM sodium phosphate buffer, pH 7.5. (NeutrAvidin can be prepared as 1 mg/ml (1000×) in milliQ water/10% glycerol and stored at −80° C. before use.) The plate was sealed plate with adhesive film and stored at 4° C. overnight, then blocked for 2 hours (unsealed) at room temperature with 200 μl/well OFB+0.1% v/v Tween 20. The “capture” plate was allowed to come to room temperature. Several dilutions of test compound were prepared with 100% DMSO, according to the desired concentration to be tested. 2.5 μl of diluted test compound was pipetted into the bottom of each well of a 96-well “dilution” polypropylene plate (Costar 3365), to which was added 250 ul of Oligomer Formation Buffer (OFB: 20 mM sodium phosphate, pH 7.5-150 mM NaCl). To begin oligomerization, 2 μl/well of the biotin-AB was added to the bottom of each well of a 96-well “reaction” polypropylene plate (Costar 3365) and 100 ul of each well of the “dilution” plate was transferred to the “reaction” plate (final concentration of DMSO being up to 1%). The reaction plate was sealed and incubated for 1 hr at room temperature without shaking. The reaction was then stopped by the addition of 50 ul of 0.3% Tween 20 in water. The “capture” plate blocking solution was removed, and 50 ul of each well of the “reaction” plate was transferred to each well of the “capture” plate. The “capture” plate was sealed and incubated for 2 hours at room temperature with shaking at 150 rpm. The “capture” plate was then washed on a plate washer (3×) with 200 ul/well TBST (20 mM Tris-HCL, pH 7.5/150 mM NaCl/0.1% Tween 20). 50 ul of Streptavidin-horseradish […] (1:20,000 dilution) in OFB+0.1% Tween 20 was added to each well, the “capture” plate was sealed and incubated for 1 hr with shaking at 150 rpm. As before, the plate was washed, then 100 ul of TMB/H2O2 substrate solution was added to each well. After 5-10 minutes, 100 ul of 1% v/v sulfuric acid was added and the absorbance of each well was read at 450 nm using a standard plate reader. Data is summarized in the table below; numbers given in parenthesis for the Aβ 40 Thioflavin T assays are the values in that particular experiment for compound ID 1027, given as the first entry in this table for structural comparison. “IC50 Aβ42-bio” column refers to the approximate value of the Aβ42 biotinylated assay IC50 in micromoles/L.

Terminally biotinylated beta-amyloid (Aβ42), sequence (P05067 672-713, species assumed): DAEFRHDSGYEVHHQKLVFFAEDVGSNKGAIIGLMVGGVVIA

Row | Structure (SMILES) | pIC50
1 | OC(c1cncc(-c2cc(N3CC(CN4CCCC4)C3)c3nonc3c2)c1)C(F)(F)F (centres unmarked) [compound 1544] | 5.41
2 | OC(c1ccc(-c2cc(N3CC(CN4CCCC4)C3)c3nonc3c2)nc1)C(F)(F)F (centres unmarked) [compound 1545] | 5.08
3 | OC(c1cnc(-c2cc(N3CC(CN4CCCC4)C3)c3nonc3c2)s1)C(F)(F)F (centres unmarked) [compound 1546] | 5.08
4 | Fc1ccc(-c2cc(N3CC(CN4CCCC4)C3)c3nonc3c2)cc1 [compound 1547] | 4.92
5 | NC(=O)c1cc(N2CC(CN3CCCC3)C2)c2nonc2c1 [compound 1548] | 4.60
6 | CC(c1cc(N2CC(CN3CCCC3)C2)c2nonc2c1)N(C1CC1)S(C)(=O)=O (centres unmarked) [compound 1549] | 5.26
7 | CC(=O)N(C1CC1)C(C)c1cc(N2CC(CN3CCCC3)C2)c2nonc2c1 (centres unmarked) [compound 1550] | 5.28
8 | CC(NC1CC1)c1cc(N2CC(CN3CCCC3)C2)c2nonc2c1 (centres unmarked) [compound 1551] | 5.17
9 | O=C(c1cc(N2CC(CN3CCCC3)C2)c2nonc2c1)N1CCCCC1 [compound 1552] | 5.24
10 | OC(CCc1cc(N2CC(CN3CCCC3)C2)c2nonc2c1)C(F)(F)F (centres unmarked) [compound 1553] | 4.92
11 | CS(=O)(=O)N1CCCCC1c1cc(N2CC(CN3CCCC3)C2)c2nonc2c1 (centres unmarked) [compound 1554] | 5.08
12 | CC(=O)N1CCCCC1c1cc(N2CC(CN3CCCC3)C2)c2nonc2c1 (centres unmarked) [compound 1555] | 5.30
13 | COCCN1CCCCC1c1cc(N2CC(CN3CCCC3)C2)c2nonc2c1 (centres unmarked) [compound 1556] | 5.18
14 | CN1CCCCC1c1cc(N2CC(CN3CCCC3)C2)c2nonc2c1 (centres unmarked) [compound 1557] | 4.73
15 | Cc1cc(C)c(-c2cc(N3CC(CN4CCCC4)C3)c3nonc3c2)c(C)c1 [compound 1558] | 5.23
16 | Cc1ccc(C)c(-c2cc(N3CC(CN4CCCC4)C3)c3nonc3c2)c1 [compound 1559] | 5.12
17 | c1nc(-c2cc(N3CC(CN4CCCC4)C3)c3nonc3c2)cs1 [compound 1561] | 5.16
18 | OC(c1cccnc1-c1cc(N2CC(CN3CCOCC3)C2)c2nonc2c1)C(F)(F)F (centres unmarked) [compound 1563, 2,2,2-trifluoro-1-(2-(7-(3-(morpholinomethyl)azetidin-1-yl)benzo[c][1,2,5]oxadiazol-5-yl)pyridin-3-yl)ethan-1-ol] | < 4.70
19 | OC(c1cccnc1-c1cc(N2CC(CN3CCCC3)C2)c2nonc2c1)C(F)(F)F (centres unmarked) [compound 1564, 2,2,2-trifluoro-1-(2-(7-(3-(pyrrolidin-1-ylmethyl)azetidin-1-yl)benzo[c][1,2,5]oxadiazol-5-yl)pyridin-3-yl) ethan-1-ol] | 5.22
20 | OC(c1nc(-c2cc(N3CC(CN4CCCC4)C3)c3nonc3c2)cs1)C(F)(F)F (centres unmarked) [compound 1567] | 4.57
21 | OC(c1ncccc1-c1cc(N2CC(CN3CCOCC3)C2)c2nonc2c1)C(F)(F)F (centres unmarked) [compound 1569, 2,2,2-trifluoro-1-(3-(7-(3-(morpholinomethyl)azetidin-1-yl)benzo[c][1,2,5]oxadiazol-5-yl)pyridin-2-yl) ethan-1-ol] | 4.94
22 | NC(=O)c1ccc(-c2cc(N3CC(CN4CCCC4)C3)c3nonc3c2)cc1 [compound 1579, 4-(7-(3-(pyrrolidin-1-ylmethyl)azetidin-1-yl)benzo[c][1,2,5]oxadiazol-5-yl)benzamide] | 4.02
23 | c1ccc(-c2cc(N3CC(CN4CCCC4)C3)c3nonc3c2)nc1 [compound 1580, 6-(Pyridin-2-yl)-4-(3-(pyrrolidin-1-ylmethyl)azetidin-1-yl)benzo[c][1,2,5]oxadiazole] | < 4.70
24 | OC(c1ccnc(-c2cc(N3CC(CN4CCCC4)C3)c3nonc3c2)c1)C(F)(F)F (centres unmarked) [compound 1587, 2,2,2-trifluoro-1-(2-(7-(3-(pyrrolidin-1-ylmethyl)azetidin-1-yl)benzo[c][1,2,5]oxadiazol-5-yl)pyridin-4-yl)ethan-1-ol] | 4.91

Now from value to compound:

Row | pIC50 | Structure (SMILES)
25 | 5.17 | c1csc(-c2cc(N3CC(CN4CCCC4)C3)c3nonc3c2)n1 [compound 1560]
26 | 5.57 | OC(c1ccc(-c2cc(N3CC(CN4CCOCC4)C3)c3nonc3c2)s1)C(F)(F)F (centres unmarked) [compound 1562, 2,2,2-trifluoro-1-(5-(7-(3-(morpholinomethyl)azetidin-1-yl)benzo[c][1,2,5]oxadiazol-5-yl)thiophen-2-yl)ethan-1-ol]
27 | < 4.70 | OCc1csc(-c2cc(N3CC(CN4CCOCC4)C3)c3nonc3c2)n1 [compound 1565]
28 | < 4.70 | OCc1nc(-c2cc(N3CC(CN4CCOCC4)C3)c3nonc3c2)cs1 [compound 1566]
29 | 5.26 | OC(c1cc(-c2cc(N3CC(CN4CCOCC4)C3)c3nonc3c2)cs1)C(F)(F)F (centres unmarked) [compound 1568, 2,2,2-trifluoro-1-(4-(7-(3-(morpholinomethyl)azetidin-1-yl)benzo[c][1,2,5]oxadiazol-5-yl)thiophen-2-yl) ethan-1-ol]
30 | < 4.70 | N#Cc1cc(N2CC(CN3CCOCC3)C2)c2nonc2c1 [compound 1570, 7-(3-(morpholinomethyl)azetidin-1-yl) benzo[c][1,2,5]oxadiazole-5-carbonitrile]
31 | < 4.70 | OCc1cc(N2CC(CN3CCOCC3)C2)c2nonc2c1 [compound 1571, (7-(3-(morpholinomethyl)azetidin-1-yl)benzo[c][1,2,5]oxadiazol-5-yl)methanol]
32 | < 4.70 | OCc1ccccc1-c1cc(N2CC(CN3CCOCC3)C2)c2nonc2c1 [compound 1572]
33 | 4.89 | COc1ccc(-c2cc(N3CC(CN4CCOCC4)C3)c3nonc3c2)cc1OC [compound 1573, 6-(3,4-dimethoxyphenyl)-4-(3-(morpholinomethyl)azetidin-1-yl) benzo[c][1,2,5]oxadiazole]
34 | 4.78 | N#Cc1ccc(-c2cc(N3CC(CN4CCOCC4)C3)c3nonc3c2)cc1 [compound 1574, 4-(7-(3-(morpholinomethyl)azetidin-1-yl)benzo[c][1,2,5]oxadiazol-5-yl)benzonitrile]
35 | 5.40 | Clc1cc(Cl)cc(-c2cc(N3CC(CN4CCOCC4)C3)c3nonc3c2)c1 [compound 1575, 6-(3,5-dichlorophenyl)-4-(3-(morpholinomethyl)azetidin-1-yl) benzo[c][1,2,5]oxadiazole]
36 | 4.34 | NC(=O)c1cccc(-c2cc(N3CC(CN4CCOCC4)C3)c3nonc3c2)c1 [compound 1576, 3-(7-(3-(morpholinomethyl)zetidin-1-yl)benzo[c][1,2,5]oxadiazol-5-yl) benzamide]
37 | 4.83 | N#Cc1cccc(-c2cc(N3CC(CN4CCOCC4)C3)c3nonc3c2)c1 [compound 1577, 3-(7-(3-(morpholinomethyl)azetidin-1-yl)benzo[c][1,2,5]oxadiazol-5-yl)benzonitrile]
38 | 5.54 | COc1ccc(-c2cc(N3CC(CN4CCOCC4)C3)c3nonc3c2)cc1Cl [compound 1578, 6-(3-chloro-4-methoxyphenyl)-4-(3-(morpholinomethyl)azetidin-1-yl) benzo[c][1,2,5]oxadiazole]
39 | 5.15 | COc1cc(-c2cc(N3CC(CN4CCOCC4)C3)c3nonc3c2)ccc1F [compound 1584, 6-(4-fluoro-3-methoxyphenyl)-4-(3-(morpholinomethyl)azetidin-1-yl) benzo[c][1,2,5]oxadiazole]
40 | 5.24 | COc1ccc(-c2cc(N3CC(CN4CCOCC4)C3)c3nonc3c2)cc1F [compound 1585, 6-(3-fluoro-4-methoxyphenyl)-4-(3-(morpholinomethyl)azetidin-1-yl) benzo[c][1,2,5]oxadiazole]
41 | 4.38 | N#Cc1ccccc1-c1cc(N2CC(CN3CCOCC3)C2)c2nonc2c1 [compound 1586, 2-(7-(3-(morpholinomethyl)azetidin-1-yl)benzo[c][1,2,5]oxadiazol-5-yl)benzonitrile]
